System: 317291-083-R-J1-PDC complex spheroids, viability
Assay: Anticancer human tumor 317291-083-R-J1-PDC patient-derived soft tissue sarcoma cell line growth inhibition [GQUAD]
Conditions: for IC50: curve of first compound; for viability, T/C: stronger effect = lower value
From the text: DNA G-quadruplex Stabilizer Agents in Combinations in Complex Spheroids
A high-throughput screen of multi-cell type tumor spheroids was designed to identify active combinations of DNA G-quadruplex stabilizer agents and targeted small molecules. Complex spheroids include a stromal component modeled by human endothelial cells (HUVEC) and fibroblasts modeled by human mesenchymal stem cells (MSCs). The concentration ranges selected for each drug and investigational agent were based upon clinically achievable concentrations if the clinical Cmax of the agent was known.
Compounds. The drugs and investigational agents: pidnarulex (CX-5461; NSC782164), APTO-253 (NSC789042), BRACO-19 (NSC847499), peposertib (NSC802822), ceralasertib (NSC780249), elimusertib (NSC800525), camonsertib (NSC841442), AZD-1390 (NSC803789), olaparib (NSC753686), talazoparib (NSC767125), ART-558 (NSC835418), sotorasib (NSC818433), MRTX-1133 (NSC836407), SN-38 (NSC673596), topotecan (NSC609699), etoposide (NSC141540), doxorubicin (NSC123127), gemcitabine (NSC613327), 5-fluorouracil (NSC19893), paclitaxel (NSC125973), vemurafenib (NSC761431), panobinostat (NSC761190), R-306465 (JNJ-16241199; NSC773264), adavosertib (NSC754352), TP-3654 (NSC805149), carboplatin (NSC241240), KSQ-4279 (NSC840948), and staurosporine (NSC755774) were obtained from the National Cancer Institute (NCI) Developmental Therapeutics Program Chemical Repository (34). The FDA-approved anticancer drug set is available from the NCI Developmental Therapeutics Program. […] The stock solutions were prepared in dimethyl sulfoxide (DMSO, Sigma-Aldrich, St. Louis, MO, cat. D2650) at 800-fold the tested concentration and stored at -70 degrees C prior to their use. All drugs and investigational agents were tested over a range starting from a high concentration at or near the clinical Cmax and decreasing in half-log increments. If the clinical Cmax for an agent had not been determined, the highest concentration tested was 10 microM.
2.3 Cell Culture. All cells were maintained in an incubator at 37 degrees C and 5% CO2 with 95% humidity. The PDC lines were cultured according to standard operating procedures established by the NCI PDMR. All PDCs were thawed and cultured in Matrigel-coated flasks prepared with a working solution of 1X Ham's F-12 nutrient mix, without supplementation (Invitrogen, cat. 11765054), 100 U/mL penicillin-streptomycin (Invitrogen, cat. 15140122), and 2.5% Matrigel (Corning Inc., cat. 354248) for the first three passages. The 857933-349-R-J2-PDC line was cultured in 6C/Colon 1B media, which includes advanced DMEM/F-12 (Thermo Fisher Scientific, cat. 12634028), 10 mM HEPES (Thermo Fisher Scientific, cat. 15630080), 1X GlutaMAX supplement (Thermo Fisher Scientific, cat. 35050061), 0.1 mg/mL primocin (InvivoGen, cat. ant-pm-2), 10% defined fetal bovine serum, heat inactivated (HyClone Laboratories Inc., cat. SH30070.03HI), 50% L-WRN conditioned media (ATCC, cat. CRL-3276), 1.25 mM N-Acetyl-L-cysteine (Sigma-Aldrich, cat. A9165), 10 mM nicotinamide (Sigma-Aldrich, cat. N0636), 1X B-27 supplement (Thermo Fisher Scientific, cat. 17504044), 1X N-2 supplement (Thermo Fisher Scientific, cat. 17502048), 10 microM Y-27632 dihydrochloride (Tocris Bioscience, cat. 1254), and 50 ng/mL human EGF recombinant protein (Thermo Fisher Scientific, cat. PHG0311). The 485176-168-R4-J1-PDC line was cultured in Panc media, which includes all 6C/Colon 1B media components plus 100 ng/mL human FGF-10 (Thermo Fisher Scientific, cat. 100-26), 500 nM SB-431542 (Selleckchem, cat. S1067), and gastrin (Tocris, cat. 3006).
[…]

[1] = second compound 0.0316 µM, first compound 0.0316 µM
[2] = second compound 0.0316 µM, first compound 0.1 µM
[3] = second compound 0.0316 µM, first compound 0.316 µM
[4] = second compound 0.0316 µM, first compound 1 µM
[5] = second compound 0.0316 µM, first compound 3.16 µM
[6] = second compound 0.0316 µM, first compound 10 µM
[7] = second compound 0.1 µM, first compound 0.0316 µM
[8] = second compound 0.1 µM, first compound 0.1 µM
[9] = second compound 0.1 µM, first compound 0.316 µM
[10] = second compound 0.1 µM, first compound 1 µM
[11] = second compound 0.1 µM, first compound 3.16 µM
[12] = second compound 0.1 µM, first compound 10 µM
[13] = second compound 0.316 µM, first compound 0.0316 µM
[14] = second compound 0.316 µM, first compound 0.1 µM
[15] = second compound 0.316 µM, first compound 0.316 µM
[16] = second compound 0.316 µM, first compound 1 µM
[17] = second compound 0.316 µM, first compound 3.16 µM
[18] = second compound 0.316 µM, first compound 10 µM
[19] = second compound 1 µM, first compound 0.0316 µM
[20] = second compound 1 µM, first compound 0.1 µM
[21] = second compound 1 µM, first compound 0.316 µM
[22] = second compound 1 µM, first compound 1 µM
[23] = second compound 1 µM, first compound 3.16 µM
[24] = second compound 1 µM, first compound 10 µM
[25] = second compound 3.16 µM, first compound 0.0316 µM
[26] = second compound 3.16 µM, first compound 0.1 µM
[27] = second compound 3.16 µM, first compound 0.316 µM
[28] = second compound 3.16 µM, first compound 1 µM
[29] = second compound 3.16 µM, first compound 3.16 µM
[30] = second compound 3.16 µM, first compound 10 µM
[31] = second compound 10 µM, first compound 0.0316 µM
[32] = second compound 10 µM, first compound 0.1 µM
[33] = second compound 10 µM, first compound 0.316 µM
[34] = second compound 10 µM, first compound 1 µM
[35] = second compound 10 µM, first compound 3.16 µM
[36] = second compound 10 µM, first compound 10 µM
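Also: spheroids exposed to compounds for one week before readout.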
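For viability, T/C in this document: percent viability relative to DMSO vehicle wells taken as 100%.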

## CC1COCCN1c1cc(C2(S(C)(=N)=O)CC2)nc(-c2ccnc3[nH]ccc23)n1 (centres undefined) + CN(C)c1ccc(Nc2c3ccc(NC(=O)CCN4CCCC4)cc3nc3cc(NC(=O)CCN4CCCC4)ccc23)cc1
Second compound 0.0316 µM
  IC50: 956 nM
Second compound 0.1 µM
  IC50: 1150 nM
Second compound 0.316 µM
  IC50: 432 nM
Second compound 1 µM
  IC50: 77.3 nM
Second compound 3.16 µM
  IC50: < 31.6 nM
Second compound 10 µM
  IC50: < 31.6 nM
[1]
  viability, T/C: 123%
[2]
  viability, T/C: 111%
[3]
  viability, T/C: 81.6%
[4]
  viability, T/C: 49.3%
[5]
  viability, T/C: 25.8%
[6]
  viability, T/C: 15.9%
[7]
  viability, T/C: 141%
[8]
  viability, T/C: 105%
[9]
  viability, T/C: 82.6%
[10]
  viability, T/C: 54.6%
[11]
  viability, T/C: 22.2%
[12]
  viability, T/C: 17.1%
[13]
  viability, T/C: 84.9%
[14]
  viability, T/C: 79.9%
[15]
  viability, T/C: 55.7%
[16]
  viability, T/C: 32%
[17]
  viability, T/C: 21.6%
[18]
  viability, T/C: 16.8%
[19]
  viability, T/C: 56.6%
[20]
  viability, T/C: 44.1%
[21]
  viability, T/C: 41.9%
[22]
  viability, T/C: 18.3%
[23]
  viability, T/C: 15.2%
[24]
  viability, T/C: 7.51%
[25]
  viability, T/C: 38%
[26]
  viability, T/C: 24.3%
[27]
  viability, T/C: 37.5%
[28]
  viability, T/C: 12.3%
[29]
  viability, T/C: 8.02%
[30]
  viability, T/C: 7.55%
[31]
  viability, T/C: 3.33%
[32]
  viability, T/C: 5.73%
[33]
  viability, T/C: 7.2%
[34]
  viability, T/C: 6.92%
[35]
  viability, T/C: 3.25%
[36]
  viability, T/C: 1.68%

## Cc1cccc(N(C)C(=O)C2C(O)CCN2c2nc(C)cc(C(F)(F)F)c2C#N)c1 (centres undefined) + CN(C)c1ccc(Nc2c3ccc(NC(=O)CCN4CCCC4)cc3nc3cc(NC(=O)CCN4CCCC4)ccc23)cc1
Second compound 0.0316 µM
  IC50: > 10000 nM
Second compound 0.1 µM
  IC50: > 10000 nM
Second compound 0.316 µM
  IC50: > 10000 nM
Second compound 1 µM
  IC50: 548 nM
Second compound 3.16 µM
  IC50: < 31.6 nM
Second compound 10 µM
  IC50: < 31.6 nM
[1]
  viability, T/C: 101%
[2]
  viability, T/C: 107%
[3]
  viability, T/C: 93.1%
[4]
  viability, T/C: 91.9%
[5]
  viability, T/C: 85.5%
[6]
  viability, T/C: 78.1%
[7]
  viability, T/C: 107%
[8]
  viability, T/C: 99.2%
[9]
  viability, T/C: 116%
[10]
  viability, T/C: 84.8%
[11]
  viability, T/C: 75.9%
[12]
  viability, T/C: 83.9%
[13]
  viability, T/C: 103%
[14]
  viability, T/C: 93.3%
[15]
  viability, T/C: 79.9%
[16]
  viability, T/C: 62.9%
[17]
  viability, T/C: 79.8%
[18]
  viability, T/C: 46.5%
[19]
  viability, T/C: 68.3%
[20]
  viability, T/C: 51.1%
[21]
  viability, T/C: 57.4%
[22]
  viability, T/C: 45.1%
[23]
  viability, T/C: 42.6%
[24]
  viability, T/C: 30%
[25]
  viability, T/C: 29.9%
[26]
  viability, T/C: 46.2%
[27]
  viability, T/C: 21.3%
[28]
  viability, T/C: 25.1%
[29]
  viability, T/C: 17.1%
[30]
  viability, T/C: 9.2%
[31]
  viability, T/C: 7.38%
[32]
  viability, T/C: 11.6%
[33]
  viability, T/C: 10.1%
[34]
  viability, T/C: 3.67%
[35]
  viability, T/C: 3.05%
[36]
  viability, T/C: 1.88%

Source: PubChem BioAssay AID2060497 (Molecular Pharmacology Branch, DTP, NCI, 2025)
